Source: paper PMC11475281, “A Novel Liver Cancer-Selective Histone Deacetylase Inhibitor Is Effective against Hepatocellular Carcinoma and Induces Durable Responses with Immunotherapy” (ACS Pharmacology & Translational Science, 2024)

What was measured:
[1] = tested on: Hep-G2 HCC cells; assay: Cell cycle analysis by flow cytometry; type: cell-based, human; conditions: 48 h
Protocol: To determine if the HCC cell selective cytotoxicity of STR-V-53 results from its perturbation of the cell cycle pattern, we evaluated the effect of STR-V-53 on the cycle progression by flow cytometry using SAHA as a control (Figure 4).
Figure 4 Effect of STR-V-53 treatment on HCC cell cycle progression. (a–c) Human Hep-G2 HCC cells were cultured until 80% confluence in a 10 cm Petri dish. The cells were serum-starved overnight before drug treatment. Then, the cells were treated with 10 mL of 0.1% DMSO medium and 0.1% DMSO solution of SAHA (5 μM) or STR-V-53 (15 μM) for 48 h. Control group (ai); SAHA (5 μM)-treated group (aii), and STR-V-53 (15 μM)-treated group (aiii and biii). (c) Quantification of the cell cycle data from two independent experiments. Bars show mean plus standard deviation; *P < 0.0332; **P < 0.0021; ***P < 0.0002; ****P < 0.00001.
MIDI 4-20% gel (Biorad, cat. 5671093) and ran at 150 V for 70 min. […] After washing with TBS-T 3x5 mins, bands were quantified using the Odyssey CLx Image system.
Hep-G2 or VERO cells were seeded (2500 to 4,000 counts/well) into 96-well plates, in which each well contains 100 µL media. […] After 2.5-4 h incubation, the plates were read using a multiplate reader at 490 nm. […]
Then cells were treated with another 500 µL of 100 ug/mL PI staining at room temperature for 30 min. The cell cycle was analyzed with BD FACS Aria Illu analyzer, and the data were […]

[2] = tested on: Hep-G2 (HCC); assay: MTS cell viability assay, 72 h; type: cell-based, human; conditions: Table S2; read-out: Anti-proliferation IC50 Hep-G2
Description: We then screened STR-V-53 and all the synthesized glycosylated HDACi for their effects on the viability of three cell lines: A549 (lung adenocarcinoma), Hep-G2 (HCC), and VERO (a normal kidney epithelial cell). We used SORA and STR-V-48, a previously disclosed nonglycosylated compound, as controls.[25] […] Additionally, compound STR-V-167, the peracetylated analog of STR-V-53, largely retained the Hep-G2 selectivity of STR-V-53 (Table S2). Subsequently, we evaluated the effects of STR-V-53 on cell proliferation using a panel of human HCC cell lines (Huh-7, SK-Hep-1, and Hep3B) as well as Kupffer cells (liver resident macrophages) by MTS assay. We observed that STR-V-53 is 7- to 16-fold more cytotoxic against these HCC cell lines relative to the Kupffer cells (Figure 1g). […] Based on their weak HDAC and cell proliferation inhibition activities, we de-emphasized further evaluation of the class III compounds.
10-017-CV), supplemented with 10% fetal bovine serum (FBS) (Corning, 35-010-CV). Hep-G2 cells were cultured in phenol red-free Minimum Essential Medium (MEM) (Corning, 17-305-CV), supplemented with 10% fetal bovine serum (FBS). SK-Hep-1 in ATCC-formulated EMEM (ATCC® 30–2003™); Huh-7 in DMEM (containing 4 mM L-glutamine and 1 g/L glucose) with […]
Kupffer Cell Media (Sekisui XenoTech, LLC, Cat. #K8700). Cells were seeded into a 96-well plate (2000 counts/100uL) for 24 h prior to treatment and then treated with various drug concentrations for 72 h. All drugs were dissolved in media with DMSO concentration maintained at 1%. The effect of compounds on cell viability was measured using the MTS assay (CellTiter 96 Aqueous One Solution and CellTiter 96 Non-Radioactive Cell Proliferation Assays, Promega, Madison, WI) as described by the manufacturer. IC50s were determined using Prism GraphPad 8. […]

Compound	IC50 [2] [µM]	also measured
O=C(CCCCCCn1cc(-c2ccc(O[C@H]3O[C@H](CO)[C@@H](O)[C@H](O)[C@H]3O)cc2)nn1)NO [STR-V-53]	–	Cell cycle progression ([1]; 15 μM): significant S phase arrest
O=C(CCCCCCC(=O)Nc1ccccc1)NO [SAHA, vorinostat, reference compound]	–	Cell cycle progression ([1]; 5 μM): significant S phase arrest
O=C(CCCCCCn1cc(-c2ccc(O[C@@H]3O[C@H](CO)[C@@H](O)[C@H](O)[C@H]3O)cc2)nn1)NO [STR-I-195]	22.3 ± 2	–
O=C(CCCCCCn1cc(-c2ccc3cc(O[C@H]4O[C@H](CO)[C@@H](O)[C@H](O)[C@H]4O)ccc3c2)nn1)NO [STR-V-114]	6.7 ± 1.6	–
